In US20210330611A1, “THERAPY FOR NEUROLOGICAL DISEASES/DISORDERS” (priority 2020, published 2021):
Where a name gives a salt, the structure may show the parent alone. Read-outs that look alike come from different tables or passages of the source.

Experiments:
Format in all cases: cell-based, rat
[1] = system: LPS-induced microglia activation; assay: Image-based assay of LPS-induced microglia activation (HTS and dose response)
[2] = system: fibrin- and LPS-induced microglia activation; assay: cells; conditions: for Activity: Table 7, fib = fibrin, LPS, tox = toxicity
[3] = system: fibrin-induced microglia activation; assay: Image-based assay of fibrin-induced microglia activation (HTS and dose response); conditions: for inhibition at 10 µM: read-out: Fibrin % inhibition
[4] = Rattus norvegicus, Microglia, primary microglia HTS, LPS stimulation, compounds at 10 μM; read-out: LPS % inhibition
[5] = quadrant by fibrin and LPS inhibition, HTS at 10 μM
[6] = Rattus norvegicus, Microglia, primary microglia HTS, fibrin stimulation, compounds at 10 μM
[7] = Rattus norvegicus, Microglia, 48 h, read-out: LPS % inhibition
[8] = Rattus norvegicus, Microglia, read-out: LPS % inhibition
[9] = Rattus norvegicus, Microglia, Table 7; read-out: LPS_IC50
[10] = Rattus norvegicus, Microglia, Table 7, read-out: fib_IC50

CCC1=C[C@@H]2CN(C1)Cc1c([nH]c3ccccc13)[C@@](C(=O)OC)(c1cc3c(cc1OC)N(C)[C@H]1[C@@](O)(C(=O)OC)[C@H](OC(C)=O)[C@]4(CC)C=CCN5CC[C@]31[C@@H]54)C2 [Vinorelbine]
inhibition at 10 µM ([1]; Rattus norvegicus, Microglia, primary microglia HTS, 10 μM, LPS-stimulated, cell size >800 μm^2 as marker of activation; read-out: LPS % inhibition): -11%
inhibition at 10 µM [1, 4]: 106%
Quadrant (FIG. 5b) ([2]; HTS of 1907 compounds, quadrant by fibrin and LPS inhibition): Q4
Quadrant (FIG. 5b) [2, 5]: Q2
inhibition at 10 µM ([3]; Rattus norvegicus, Microglia, primary microglia HTS, 10 μM, fibrin-stimulated, cell size >800 μm^2 as marker of activation): -12%
inhibition at 10 µM [3, 6]: 108%

CN1CCN2c3ccccc3Cc3ccccc3C2C1 (stereo not drawn) [Mianserin]
inhibition at 10 µM [1, 7]: 17%
Quadrant (FIG. 5b) [2]: Q4
inhibition at 10 µM ([3]; Rattus norvegicus, Microglia): -18%

CC/C(=C(\c1ccccc1)c1ccc(OCCN(C)C)cc1)c1ccccc1 [Tamoxifen]
inhibition at 10 µM [1, 8]: 5%
Quadrant (FIG. 5b) [2]: Q4
inhibition at 10 µM ([3]; Rattus norvegicus, Microglia): 14%

Cc1nccn1CC1CCc2c(c3ccccc3n2C)C1=O (stereo not drawn) [Ondansetron]
inhibition at 10 µM ([1]; Rattus norvegicus, Microglia, 48 h, primary microglia HTS, LPS stimulation; increased cell size (>800 μm^2) as marker of activation; read-out: LPS % inhibition): 14%
inhibition at 10 µM [1, 4]: 92%
Quadrant (FIG. 5b) ([2]; quadrant by fibrin and LPS inhibition in HTS of 1907 compounds): Q4
Quadrant (FIG. 5b) [2, 5]: Q2
inhibition at 10 µM [3, 6]: 106%
inhibition at 10 µM ([3]; Rattus norvegicus, Microglia, primary microglia HTS, fibrin stimulation, increased cell size (>800 μm^2) as marker of activation): -6%

Cc1cnc(C(=O)NCCc2ccc(S(=O)(=O)NC(=O)NC3CCCCC3)cc2)cn1 [Glipizide]
inhibition at 10 µM [1, 7]: 18%
Quadrant (FIG. 5b) [2]: Q4
inhibition at 10 µM ([3]; Rattus norvegicus, Microglia): 12%

CN1CCc2cccc3c2[C@H]1Cc1ccc(O)c(O)c1-3.Cl [R(−)-Apomorphine hydrochloride, reference compound]
LPS % inhibition [1]: 18%
IC50 ([1]; Table 1; dose response 0.001-20 μM, triplicates, primary rat microglia, 48 h; read-out: LPS IC50): 14 µM
IC50 ([1]; read-out: LPS IC50): 14 µM
IC50 ([1]; read-out: LPS IC50 (uM) (Suppl. Table 7)): 14 µM
Cherry-picked Hit (Suppl. Table 7) [2]: HIT (key: HIT: Hits were defined as molecules that exhibited greater than 50% inhibition of either fibrin or LPS activation)
Hit [2]: HIT (key: HIT: Hits were defined as molecules that exhibited greater than 50% inhibition of either fibrin or LPS activation)
Quadrant (FIG. 5b) [2]: Q3
Quadrant (FIG. 5b) ([2]; Table 1, screen at 10 μM): Q3
Fibrin % inhibition [3]: 63%
IC50 ([3]; Table 1, dose response 0.001-20 μM, triplicates, primary rat microglia, 48 h, read-out: Fibrin IC50): > 20 µM
IC50 ([3]; read-out: Fibrin IC50): > 20 µM
IC50 ([3]; read-out: Fibrin IC50 (uM) (Suppl. Table 7)): > 20 µM

C=C[C@@]1(C)CC(=O)[C@]2(O)[C@@]3(C)[C@@H](O)CCC(C)(C)[C@@H]3[C@H](O)[C@H](OC(C)=O)[C@@]2(C)O1 [colforsin]
IC50 [1, 9]: 1.35 µM
Activity [2]: fib/LPS
IC50 [3, 10]: 2.08 µM

COc1cc2c(c(OC)c1OC)-c1ccc(=O)c(O)cc1[C@@H](NC(C)=O)CC2 [colchiceine]
IC50 [1, 9]: 0.82 µM
Activity [2]: fib/LPS
IC50 [3, 10]: 0.625 µM

COc1ccc2cc([C@H](C)C(=O)O)ccc2c1 [Naproxen]
inhibition at 10 µM [1, 7]: 15%
Quadrant (FIG. 5b) [2]: Q4
inhibition at 10 µM ([3]; Rattus norvegicus, Microglia): -25%

CN1C(=O)CN=C(c2ccccc2)c2cc(Cl)ccc21 [Diazepam]
inhibition at 10 µM [1, 8]: 5%
Quadrant (FIG. 5b) [2]: Q4
inhibition at 10 µM ([3]; Rattus norvegicus, Microglia): -19%

CCN(CC)CC(=O)Nc1c(C)cccc1C [Lidocaine]
inhibition at 10 µM [1, 7]: 8%
Quadrant (FIG. 5b) [2]: Q4
inhibition at 10 µM ([3]; Rattus norvegicus, Microglia): -23%

O=C1OCCN1/N=C/c1ccc([N+](=O)[O-])o1 [Furazolidone]
inhibition at 10 µM [1, 7]: 8%
Quadrant (FIG. 5b) [2]: Q4
inhibition at 10 µM ([3]; Rattus norvegicus, Microglia): 3%

CS(=O)(=O)Nc1ccc([N+](=O)[O-])cc1Oc1ccccc1 [Nimesulide]
inhibition at 10 µM [1, 7]: 13%
Quadrant (FIG. 5b) [2]: Q4
inhibition at 10 µM ([3]; Rattus norvegicus, Microglia): -19%

C[C@@H]([C@H](O)c1ccccc1)N(C)C
LPS % inhibition ([1]; primary microglia HTS, LPS stimulation, compounds at 10 μM): 7%
Quadrant (FIG. 5b) [2, 5]: Q4
Fibrin % inhibition ([3]; primary microglia HTS, fibrin stimulation, compounds at 10 μM): −52%

CN(C)CCOC(c1ccccc1)c1ccccc1 [Diphenhydramine]
inhibition at 10 µM [1, 8]: 15%
Quadrant (FIG. 5b) [2]: Q4
inhibition at 10 µM ([3]; Rattus norvegicus, Microglia): -47%

COc1ccc(C(=O)N2CCCC2=O)cc1 [Aniracetam]
inhibition at 10 µM [1, 4]: 4%
Quadrant (FIG. 5b) [2, 5]: Q4
inhibition at 10 µM [3, 6]: 6%

CC(N/C(=N\C#N)Nc1ccncc1)C(C)(C)C (stereo not drawn) [Pinacidil]
inhibition at 10 µM ([1]; Rattus norvegicus, Microglia, 48 h; read-out: LPS % inhibition): 26%
Quadrant (FIG. 5b) ([2]; classification by fibrin and LPS inhibition in HTS): Q4
inhibition at 10 µM ([3]; Rattus norvegicus, Microglia, primary microglia HTS, fibrin stimulation, cell size >800 μm2 as marker of activation): 15%

O=C(O)Cc1ccccc1Nc1c(Cl)cccc1Cl [Diclofenac]
inhibition at 10 µM [1, 4]: 12%
Quadrant (FIG. 5b) ([2]; classification by fibrin and LPS inhibition, HTS at 10 μM): Q4
inhibition at 10 µM [3, 6]: -27%

CN1CCc2cccc3c2[C@H]1Cc1ccc(O)c(O)c1-3 [Apomorphine Hydrochloride]
inhibition at 10 µM [1, 8]: -4%
Quadrant (FIG. 5b) [2]: Q4
inhibition at 10 µM ([3]; Rattus norvegicus, Microglia): 11%
